Experimental data taken from ChEMBL document CHEMBL3351327, “Synthesis of some novel hydrazone and 2-pyrazoline derivatives: monoamine oxidase inhibitory activities and docking studies” (Bioorg Med Chem Lett, 2014).

Experiments:
[1] = biological target: T1, Amine oxidase [flavin-containing] A (Homo sapiens, UniProt P21397); assay: biochemical; assay type: cell-based
T1 sequence (P21397 whole entry): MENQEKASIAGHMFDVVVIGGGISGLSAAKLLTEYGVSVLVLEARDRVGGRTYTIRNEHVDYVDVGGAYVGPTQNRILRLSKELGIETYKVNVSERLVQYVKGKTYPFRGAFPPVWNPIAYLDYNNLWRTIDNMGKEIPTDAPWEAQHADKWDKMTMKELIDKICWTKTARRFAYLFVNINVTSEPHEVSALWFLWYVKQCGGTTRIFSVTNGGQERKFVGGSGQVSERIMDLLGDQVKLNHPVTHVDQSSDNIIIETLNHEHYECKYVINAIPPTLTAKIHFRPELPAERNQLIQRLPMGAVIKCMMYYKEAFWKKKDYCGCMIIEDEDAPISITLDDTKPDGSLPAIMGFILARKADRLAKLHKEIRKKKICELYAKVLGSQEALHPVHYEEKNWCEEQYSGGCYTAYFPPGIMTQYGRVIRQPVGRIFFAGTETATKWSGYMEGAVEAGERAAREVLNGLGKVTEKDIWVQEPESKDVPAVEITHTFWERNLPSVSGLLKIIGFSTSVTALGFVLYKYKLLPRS
Description: Inhibition of human MAOA expressed in baculovirus-infected BTI insect cells assessed as H2O2 production by resorufin dye based fluorimetric method

[2] = biological target: T2, Amine oxidase [flavin-containing] B (Homo sapiens, UniProt P27338); assay: biochemical; assay type: cell-based
T2 sequence (P27338 whole entry): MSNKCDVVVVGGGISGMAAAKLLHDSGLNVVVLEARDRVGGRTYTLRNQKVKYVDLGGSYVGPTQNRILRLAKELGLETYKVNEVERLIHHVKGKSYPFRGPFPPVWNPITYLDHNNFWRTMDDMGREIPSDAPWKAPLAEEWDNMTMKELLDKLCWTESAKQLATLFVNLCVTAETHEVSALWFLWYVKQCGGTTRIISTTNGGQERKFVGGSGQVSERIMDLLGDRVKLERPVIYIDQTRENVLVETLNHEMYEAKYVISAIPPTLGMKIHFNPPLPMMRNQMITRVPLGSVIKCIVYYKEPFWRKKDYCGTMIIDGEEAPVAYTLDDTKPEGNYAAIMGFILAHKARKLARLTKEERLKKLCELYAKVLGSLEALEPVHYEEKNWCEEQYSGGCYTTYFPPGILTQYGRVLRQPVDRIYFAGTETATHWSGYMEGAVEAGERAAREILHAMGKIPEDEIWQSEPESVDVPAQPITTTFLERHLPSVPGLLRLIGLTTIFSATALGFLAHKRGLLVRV
Description: Inhibition of human MAOB expressed in baculovirus-infected BTI insect cells assessed as H2O2 production by resorufin dye based fluorimetric method

Row | Structure (SMILES) | Ki [1] | Ki [2]
1 | Cc1ccc(/C=C/C(=O)c2ccc(Cl)cc2)cc1 | 0.24 µM | 7.7 µM
2 | Cc1ccc([C@H]2CC(c3cc(Br)ccc3O)=NN2C(=O)c2cccs2)cc1 | 0.13 µM | 1640 µM
3 | Cc1cccc(/C=C/C(=O)c2ccc(Cl)cc2)c1 | 0.16 µM | 7 µM
4 | COc1ccc(/C=C/C(=N\NC(=O)c2ccco2)c2ccc(Br)cc2)cc1 | 0.091 µM | 0.7 µM
5 | Cc1ccc(/C=C/C(=O)c2cc(Br)ccc2O)cc1 | 0.13 µM | 4.22 µM
6 | Cc1ccc([C@H]2CC(c3cc(Cl)ccc3O)=NN2C(=O)c2ccco2)cc1 | 0.11 µM | 0.99 µM
7 | COc1ccc(/C=C/C(=O)c2ccc(Br)cc2)cc1 | 0.1 µM | 5.55 µM
8 | Cc1ccc(/C=C/C(=O)c2cc(Cl)ccc2O)cc1 | 0.14 µM | 7.22 µM
9 | Cc1ccc([C@H]2CC(c3cc(Cl)ccc3O)=NN2C(=O)c2ccncc2)cc1 | 0.6 µM | 5.23 µM
10 | Cc1ccc(/C=C/C(=O)c2ccc(O)cc2)cc1 | 0.6 µM | 
11 | Cc1ccc([C@H]2CC(c3cc(Br)ccc3O)=NN2C(=O)c2ccncc2)cc1 | 0.18 µM | 2 µM
12 | COc1ccc(C(=O)N2N=C(c3cc(Br)ccc3O)C[C@@H]2c2ccc(C)cc2)cc1 | 79.2 µM | 
13 | COc1ccc(C(=O)/C=C/c2ccc(C)cc2)cc1 | 0.56 µM | 14.9 µM
14 | COc1ccc(/C=C/C(=O)c2ccc(Cl)cc2)cc1 | 0.24 µM | 13.9 µM
15 | Cc1ccc([C@H]2CC(c3cc(Cl)ccc3O)=NN2C(=O)c2snnc2C)cc1 | 0.24 µM | 72 µM
16 | COc1ccc(C(=O)N2N=C(c3cc(Cl)ccc3O)C[C@@H]2c2ccc(C)cc2)cc1 | 4.67 µM | 
17 | Cc1ccc([C@H]2CC(c3cc(Br)ccc3O)=NN2C(=O)c2ccco2)cc1 | 0.45 µM | 14 µM

Compounds with a lower Ki [1], results first:

Row | Ki [1] | Ki [2] | Structure (SMILES)
18 | 0.01 µM | 1.48 µM | Cc1ccc(/C=C/C(=N/NC(=O)c2snnc2C)c2ccc(O)cc2)cc1
19 | 0.012 µM | 0.76 µM | Cc1ccc(/C=C/C(=N/NC(=O)c2snnc2C)c2ccc(Cl)cc2)cc1
20 | 0.04 µM |  | Cc1ccc([C@H]2CC(c3cc(Br)ccc3O)=NN2C(=O)c2ccccc2)cc1
21 | 0.034 µM | 0.52 µM | Cc1ccc(/C=C/C(=N\NC(=O)c2cccs2)c2ccc(Cl)cc2)cc1
22 | 0.01 µM | 0.99 µM | Cc1cccc(/C=C/C(=N/NC(=O)c2snnc2C)c2ccc(Cl)cc2)c1
23 | 0.045 µM | 0.98 µM | COc1ccc(/C=C/C(=N\NC(=O)c2ccc(OC)cc2)c2ccc(Br)cc2)cc1
24 | 0.041 µM | 0.9 µM | COc1ccc(C(/C=C/c2ccc(C)cc2)=N\NC(=O)c2snnc2C)cc1
25 | 0.012 µM | 0.75 µM | Cc1ccc([C@H]2CC(c3cc(Cl)ccc3O)=NN2C(=O)c2ccccc2)cc1
26 | 0.034 µM |  | COc1ccc(/C=C/C(=N\NC(=O)c2ccc(OC)cc2)c2ccc(Cl)cc2)cc1
27 | 0.012 µM | 1.05 µM | COc1ccc(/C=C/C(=N/NC(=O)c2snnc2C)c2ccc(Cl)cc2)cc1
